Experimental data as given in ChEMBL document CHEMBL1143634, “Calculating virtual log P in the alkane/water system (log P(N)(alk)) and its derived parameters deltalog P(N)(oct-alk) and log D(pH)(alk)” (J Med Chem, 2005).

Test: Lipophilicity determined as logarithm of the partition coefficient in the alkane/water system
Settings: octanol/water

Row | SMILES | Log PNalk
1 | c1ccc(-c2ccncc2)cc1 | 1.58
2 | CSC | 0.98
3 | CNc1ccccc1 | 1.11
4 | Oc1ccccc1Br | 1.04
5 | [O-][n+]1cccc2ccccc21 | -2.05
6 | Cc1cc(C)cc(O)c1 | 0.32
7 | COc1ccccc1C(=O)O | 2.08
8 | [O-][n+]1ccc(-c2ccccc2)cc1 | -2.36
9 | Cc1ccc(C)c(O)c1 | 0.38
10 | [O-][n+]1ccc2ccccc2c1 | -2.51
11 | CSc1ccccc1 | 2.81
12 | N#Cc1ccccc1O | -1.85
13 | CCCCC(C)=O | 0.87
14 | CC(C1=C(CCN(C)C)Cc2ccccc21)c1ccccn1 (stereo not given) | 1.65
15 | O=C(O)c1cccc([N+](=O)[O-])c1 | -1.22
16 | Cc1ccc(O)c(C)c1 | 0.34
17 | CC(C)c1ccccc1O | 0.96
18 | Oc1cc(Cl)cc(Cl)c1 | 0.35
19 | [O-][S+](c1ccccc1)c1ccccc1 | 0.67
20 | CN(C)c1ccccc1 | 2.4
21 | CCCC(C)=O | 0.43
22 | Oc1ccc(C(F)(F)F)cc1 | -0.15

Row | SMILES | Log PNalk
23 | Oc1cccc(F)c1 | -0.83
24 | CCCCCCCO [1-HEPTANOL] | 1.01
25 | CCCCCO [1-PENTANOL] | -0.4
26 | COc1cccc(O)c1 [1-hydroxy-3-methoxybenzene] | -0.88
27 | Oc1c(Cl)cccc1Cl [2,6-DICHLOROPHENOL] | 1.31
28 | Oc1ccccc1Cl [2-CHLOROPHENOL] | 0.76
29 | Nc1ccccc1[N+](=O)[O-] [2-NITROANILINE] | 0.31
30 | Nc1cccc(Cl)c1 [3-CHLOROANILINE] | 0.71
31 | O=[N+]([O-])c1cccc(O)c1 [3-NITRO-PHENOL] | -1.23
32 | Nc1cccc([N+](=O)[O-])c1 [3-NITROANILINE] | -0.46
33 | Nc1ccc(Cl)cc1 [4-CHLOROANILINE] | 0.57
34 | N#Cc1ccc(O)cc1 [4-CYANOPHENOL] | -2.29
35 | O=S(=O)(c1ccccc1)c1ccccc1 [(PHENYLSULFONYL)BENZENE] | 1.45
36 | CC(=O)Nc1ccccc1 [ACETANILIDE] | -1.7
37 | COC(C)=O [ACETIC ACID METHYL ESTER] | -0.26
38 | CCCOC(C)=O [ACETIC ACID PROPYL ESTER] | 0.9
39 | CC(C)=O [ACETONE] | -0.91
40 | CC(=O)c1ccccc1 [ACETOPHENONE] | 1.14
41 | C[C@]12CCC(=O)C=C1CC[C@@H]1[C@@H]2[C@@H](O)C[C@]2(C=O)[C@@H](C(=O)CO)CC[C@@H]12 [ALDOSTERONE] | -2.7
42 | CC(N)Cc1ccccc1 (stereo not given) [AMPHETAMINE] | 0.73
43 | Nc1ccccc1 [ANILINE] | 0.03
44 | COc1ccccc1 [ANISOLE] | 2.15

Row | SMILES | Log PNalk
45 | COc1ccc(CCN2CCC(Nc3nc4ccccc4n3Cc3ccc(F)cc3)CC2)cc1 [ASTEMIZOLE] | 0.95
46 | CN1CCC(=C2c3ccccc3CCc3cccnc32)CC1 [AZATADINE] | 1.82
47 | CCC1(CC)C(=O)NC(=O)NC1=O [BARBITAL] | -2.15
48 | O=Cc1ccccc1 [BENZALDEHYDE] | 1.12
49 | N#Cc1ccccc1 [BENZONITRILE] | 0.9
50 | OCc1ccccc1 [BENZYL ALCOHOL] | -0.62
51 | NCc1ccccc1 [BENZYLAMINE] | -0.21
52 | Oc1ccc2ccccc2c1 [BETANAPHTHOL] | 0.3
53 | c1ccc(-c2ccccc2)cc1 [BIPHENYL] | 4
54 | Brc1ccccc1 [BROMOBENZENE] | 3.12
55 | CCC(C)=O [BUTANONE] | -0.25
56 | CCCCN [BUTYLAMINE] | -0.62
57 | O=C(O)CCl [CHLOROACETIC ACID] | -3.14
58 | Clc1ccccc1 [CHLOROBENZENE] | 2.99
59 | CN(C)CCC(c1ccc(Cl)cc1)c1ccccn1 (stereo not given) [CHLORPHENIRAMINE] | 2.09
60 | CN(C)CCCN1c2ccccc2Sc2ccc(Cl)cc21 [CHLORPROMAZINE] | 4.37
61 | Cc1ncc2c(c1O)COC2c1ccc(Cl)cc1 (stereo not given) [CICLETANINE] | -1.76
62 | C[C@]12C[C@H](O)[C@H]3[C@@H](CCC4=CC(=O)CC[C@@]43C)[C@@H]1CC[C@@H]2C(=O)CO [CORTICOSTERONE] | -1.62
63 | C[C@]12CCC(=O)C=C1CC[C@@H]1[C@@H]2CC[C@@]2(C)[C@H]1CC[C@]2(O)C(=O)CO [CORTODOXONE] | -1
64 | C[C@]12CC[C@H]3[C@@H](CCC4=CC(=O)CC[C@@]43C)[C@@H]1CC[C@@H]2C(=O)CO [DESOXYCORTICOSTERONE] | 0.48
65 | O=C([O-])Cc1ccccc1Nc1c(Cl)cccc1Cl.[Na+] [DICLOFENAC SODIUM] | 1.72
66 | COc1ccc([C@@H]2Sc3ccccc3N(CCN(C)C)C(=O)[C@@H]2OC(C)=O)cc1 [DILTIAZEM] | 1.37

Row | SMILES | Log PNalk
67 | CN[C@@H](C)[C@H](O)c1ccccc1 [EPHEDRINE] | -0.77
68 | NC1=NCC2c3ccccc3Cc3ccccc3N12 (stereo not given) [EPINASTINE] | 1.76
69 | C[C@]12CC[C@@H]3c4ccc(O)cc4CC[C@H]3[C@@H]1CC[C@@H]2O [ESTRADIOL] | -0.2
70 | C[C@]12CC[C@@H]3c4ccc(O)cc4CC[C@H]3[C@@H]1C[C@@H](O)[C@@H]2O [ESTRIOL] | -0.64
71 | C[C@]12CC[C@@H]3c4ccc(O)cc4CC[C@H]3[C@@H]1CCC2=O [ESTRONE] | 0.48
72 | CCOC(C)=O [ETHYL ACETATE] | 0.29
73 | CCN [ETHYLAMINE] | -1.77
74 | CC1CCc2cc(F)cc3c(=O)c(C(=O)O)cn1c23 (stereo not given) [FLUMEQUINE] | -1.37
75 | Fc1ccccc1 [FLUOROBENZENE] | 2.46
76 | CC(C(=O)O)c1ccc(-c2ccccc2)c(F)c1 (stereo not given) [FLURBIPROFEN] | 1.49
77 | COc1ccccc1O [GUAIACOL] | 0.36
78 | N=C(N)N/N=C/c1c(Cl)cccc1Cl [GUANABENZ] | -1.6
79 | O=C(CCCN1CCC(O)(c2ccc(Cl)cc2)CC1)c1ccc(F)cc1 [HALOPERIDOL] | 1.53
80 | CCCCCC(=O)O [HEXANOATE] | 0.24
81 | CN1C(=O)NC(=O)C(C)(C2=CCCCC2)C1=O (stereo not given) [HEXOBARBITAL] | -0.57
82 | OCCOCCN1CCN(C(c2ccccc2)c2ccc(Cl)cc2)CC1 (stereo not given) [HYDROXYZINE] | 1.25
83 | CC(C)Cc1ccc(C(C)C(=O)O)cc1 (stereo not given) [IBUPROFEN] | 2.08
84 | c1ccc2[nH]ccc2c1 [INDOLE] | 0.68
85 | COc1ccc2c(c1)c(CC(=O)O)c(C)n2C(=O)c1ccc(Cl)cc1 [INDOMETHACIN] | 0.98
86 | Ic1ccccc1 [IODOBENZENE] | 3.33
87 | CC(C)CO [ISOBUTANOL] | -0.98
88 | c1ccc2cnccc2c1 [ISOQUINOLINE] | 1.11

Row | SMILES | Log PNalk
89 | CC(C(=O)O)c1cccc(C(=O)c2ccccc2)c1 (stereo not given) [KETOPROFEN] | 0
90 | COc1ccc(O)cc1 [MEQUINOL] | -1.03
91 | Cc1cccc(O)c1 [METACRESOL] | -0.35
92 | CN[C@@H](C)Cc1ccccc1 [METHAMPHETAMINE] | 1.24
93 | CO [METHYL ALCOHOL] | -2.8
94 | COC(=O)c1ccccc1 [METHYL BENZOATE] | 2.13
95 | CS(=O)(=O)c1ccccc1 [METHYLPHENYLSULFONE] | -0.87
96 | C[S+]([O-])c1ccccc1 (stereo not given) [METHYLPHENYLSULFOXIDE] | -1.52
97 | COCCc1ccc(OCC(O)CNC(C)C)cc1 (stereo not given) [METOPROLOL] | -0.38
98 | CN1CCC[C@H]1c1cccnc1 [NICOTINE] | 0.03
99 | O=[N+]([O-])c1ccc(/C=N/O)o1 [NIFUROXIME] | -1.1
100 | O=[N+]([O-])c1ccccc1 [NITROBENZENE] | 1.55
101 | O=[N+]([O-])c1ccccc1O [NITROPHENOLATE] | 1.04
102 | Cc1ccccc1N [O-TOLYLAMINE] | 0.47
103 | Cc1ccccc1O [ORTHOCRESOL] | 0.25
104 | O=[N+]([O-])c1ccc(O)cc1 [P-NITROPHENOL] | -2.15
105 | COc1ccc(Cc2nccc3cc(OC)c(OC)cc23)cc1OC [PAPAVERINE] | 0.75
106 | O=C(O)c1ccc(O)cc1 [PARABEN] | -1.82
107 | Oc1ccc(Cl)cc1 [PARACHLOROPHENOL] | -0.12
108 | CC(C)(C)NC[C@H](O)COc1ccccc1C1CCCC1 [PENBUTOLOL] | 3.06
109 | CCCCC [PENTANE] | 4.18
110 | CCCC(C)C1(CC)C(=O)NC(=O)NC1=O (stereo not given) [PENTOBARBITAL] | -1.22
